Experimental data reported in patent US8471005B2 (Cephalon, Inc., priority 2008, dated 2013).
Read-outs that look alike come from different tables or passages of the source.

Tests used:
ALK = molecular target: T1, ALK (Homo sapiens, UniProt Q9UM73); test: ALK Kinase Assay (ELISA/TRF, PLC-γ substrate); assay type: biochemical; details: read-out: ALK Potency
T1 construct: host or cells: baculovirus expression system
Outline: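 Read-out is time-resolved fluorescence from a Eu-N1-labeled PT66 antibody that binds phosphorylated PLC-γ, the substrate coated at 10 μg/mL in TBS. ALK at 30 ng/ml starts the reaction, which runs 15 minutes at 37° C.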

JAK2 = molecular target: T2, JAK2 (Homo sapiens, UniProt O60674); test: Recombinant Human JAK2 Kinase Assay (TRF); assay type: biochemical; details: read-out: JAK2 Potency
T2 construct: host or cells: baculovirus expression system
Outline: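 Kinase activity of baculovirus-expressed JAK2 is followed on a surface-immobilised biotinylated peptide, with the reaction run for 20 min at room temperature in buffer containing 0.2 μM ATP and manganese. Phosphorylation is read with Eu-N1 PY100 antibody.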

[1] = ALK kinase inhibition, 1 μM ATP
[2] = JAK2 kinase inhibition, 0.2 μM ATP

T1 sequence (Q9UM73 19-1620): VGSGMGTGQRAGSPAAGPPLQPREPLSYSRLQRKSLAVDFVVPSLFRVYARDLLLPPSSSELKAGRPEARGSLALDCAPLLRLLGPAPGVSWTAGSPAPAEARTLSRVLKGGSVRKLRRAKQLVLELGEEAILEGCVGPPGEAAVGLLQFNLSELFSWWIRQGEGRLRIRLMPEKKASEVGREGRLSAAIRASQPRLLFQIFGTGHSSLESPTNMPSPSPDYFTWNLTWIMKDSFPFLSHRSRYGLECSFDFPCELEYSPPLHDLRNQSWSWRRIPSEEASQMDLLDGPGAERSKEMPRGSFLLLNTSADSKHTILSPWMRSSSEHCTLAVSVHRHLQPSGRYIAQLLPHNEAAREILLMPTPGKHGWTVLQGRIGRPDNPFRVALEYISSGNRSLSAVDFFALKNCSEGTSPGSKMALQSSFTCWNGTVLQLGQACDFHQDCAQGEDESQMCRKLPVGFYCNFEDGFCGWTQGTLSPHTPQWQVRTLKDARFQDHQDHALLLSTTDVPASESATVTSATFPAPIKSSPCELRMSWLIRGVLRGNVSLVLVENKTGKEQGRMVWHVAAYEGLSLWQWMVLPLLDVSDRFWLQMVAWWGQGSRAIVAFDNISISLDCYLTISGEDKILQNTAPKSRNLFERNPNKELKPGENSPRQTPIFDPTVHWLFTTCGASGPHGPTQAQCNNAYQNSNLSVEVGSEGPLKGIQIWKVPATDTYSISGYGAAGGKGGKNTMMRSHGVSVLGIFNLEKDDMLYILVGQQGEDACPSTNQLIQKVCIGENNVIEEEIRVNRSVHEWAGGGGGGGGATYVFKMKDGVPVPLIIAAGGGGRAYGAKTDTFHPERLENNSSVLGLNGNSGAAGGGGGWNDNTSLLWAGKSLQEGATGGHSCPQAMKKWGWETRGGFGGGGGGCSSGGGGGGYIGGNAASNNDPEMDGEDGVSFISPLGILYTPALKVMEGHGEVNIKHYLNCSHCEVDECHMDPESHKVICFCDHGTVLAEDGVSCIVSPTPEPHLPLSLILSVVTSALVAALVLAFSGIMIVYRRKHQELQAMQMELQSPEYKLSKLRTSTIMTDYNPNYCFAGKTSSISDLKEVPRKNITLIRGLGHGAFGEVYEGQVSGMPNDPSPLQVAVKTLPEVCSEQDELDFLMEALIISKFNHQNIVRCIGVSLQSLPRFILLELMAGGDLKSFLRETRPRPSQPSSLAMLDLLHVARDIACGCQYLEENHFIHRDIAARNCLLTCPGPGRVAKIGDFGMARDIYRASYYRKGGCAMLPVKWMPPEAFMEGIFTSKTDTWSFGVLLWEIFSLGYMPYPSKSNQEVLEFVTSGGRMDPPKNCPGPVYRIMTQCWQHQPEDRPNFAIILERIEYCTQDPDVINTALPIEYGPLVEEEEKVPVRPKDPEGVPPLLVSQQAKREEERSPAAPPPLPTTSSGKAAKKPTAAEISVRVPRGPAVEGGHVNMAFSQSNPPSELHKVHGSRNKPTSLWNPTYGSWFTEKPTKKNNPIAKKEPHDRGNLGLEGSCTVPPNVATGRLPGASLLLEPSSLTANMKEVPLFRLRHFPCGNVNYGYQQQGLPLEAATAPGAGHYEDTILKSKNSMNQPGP
T2 sequence (O60674 whole entry): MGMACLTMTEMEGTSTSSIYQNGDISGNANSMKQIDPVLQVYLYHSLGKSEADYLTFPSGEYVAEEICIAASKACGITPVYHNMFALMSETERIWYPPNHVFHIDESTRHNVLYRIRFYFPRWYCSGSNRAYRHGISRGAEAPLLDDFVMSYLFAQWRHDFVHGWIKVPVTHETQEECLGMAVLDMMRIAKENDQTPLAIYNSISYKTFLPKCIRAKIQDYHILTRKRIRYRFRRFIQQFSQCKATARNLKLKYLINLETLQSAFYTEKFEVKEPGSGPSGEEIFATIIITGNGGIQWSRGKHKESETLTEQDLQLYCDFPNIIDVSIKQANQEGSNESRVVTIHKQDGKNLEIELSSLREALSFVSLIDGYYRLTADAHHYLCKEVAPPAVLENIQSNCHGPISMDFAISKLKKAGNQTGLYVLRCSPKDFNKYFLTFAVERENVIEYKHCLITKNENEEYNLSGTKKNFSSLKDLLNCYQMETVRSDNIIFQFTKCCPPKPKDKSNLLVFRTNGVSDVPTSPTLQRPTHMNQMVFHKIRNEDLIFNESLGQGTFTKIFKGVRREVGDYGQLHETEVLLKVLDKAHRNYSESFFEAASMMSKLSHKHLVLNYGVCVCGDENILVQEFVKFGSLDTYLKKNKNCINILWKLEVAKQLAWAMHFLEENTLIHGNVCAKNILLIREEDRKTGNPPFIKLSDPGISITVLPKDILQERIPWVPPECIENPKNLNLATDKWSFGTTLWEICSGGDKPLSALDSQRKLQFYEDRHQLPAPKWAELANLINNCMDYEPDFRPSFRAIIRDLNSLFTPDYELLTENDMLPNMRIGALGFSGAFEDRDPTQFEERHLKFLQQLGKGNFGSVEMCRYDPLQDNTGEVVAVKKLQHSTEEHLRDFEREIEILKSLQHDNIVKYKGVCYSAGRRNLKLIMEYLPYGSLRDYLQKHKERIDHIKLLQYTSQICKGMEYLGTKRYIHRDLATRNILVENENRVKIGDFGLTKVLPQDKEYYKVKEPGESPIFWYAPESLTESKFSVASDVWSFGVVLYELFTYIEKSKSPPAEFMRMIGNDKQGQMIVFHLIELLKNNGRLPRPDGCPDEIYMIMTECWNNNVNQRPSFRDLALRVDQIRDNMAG

IC50 (ALK; [1]) [nM]	IC50 (JAK2; [2]) [nM]	IC50 (ALK; ALK Kinase Inhibition) [nM]	IC50 (JAK2; JAK2 Kinase Inhibition) [nM]	Compound
< 100	100 to 1000	–	–	COc1cc(C2CCN(CC(=O)N(C)C)CC2)ccc1Nc1ncc2ccc(-c3ccccc3N(C)S(C)(=O)=O)n2n1 [Example 810, 2-[4-(4-{7-[2-(Methanesulfonyl-methyl-amino)-phenyl]-pyrrolo[2,1-f][1,2,4]triazin-2-ylamino}-3-methoxy-phenyl)-piperidin-1-yl]-N,N-dimethyl-acetamide]
–	–	1000 to 10000	1000 to 10000	COc1ccccc1-c1ccc2cnc(-c3nc4cc(N5CCN(C)CC5)ccc4[nH]3)nn12 [Example 1505, 7-(2-Methoxy-phenyl)-2-[5-(4-methyl-piperazin-1-yl)-1H-benzimidazol-2-yl]-pyrrolo[2,1-f][1,2,4]triazine]
–	–	100 to 1000	100 to 1000	CC(C)(C)NS(=O)(=O)c1ccccc1-c1ccc2cnc(Nc3ccc(N4CCOCC4)cc3)nn12 [Example 412]
100 to 1000	< 100	–	–	COc1ccccc1-c1ccc2cnc(Nc3ccc4nc(CO)[nH]c4c3)nn12 [Example 1067, {6-[7-(2-Methoxy-phenyl)-pyrrolo[2,1-f][1,2,4]triazin-2-ylamino]-1H-benzoimidazol-2-yl}-methanol]
–	–	1000 to 10000	1000 to 10000	COc1ccc2c(c1)cc1cnc(Nc3ccc(N4CCOCC4)cc3OC)nn12 [Example 269, (2-Methoxy-4-morpholin-4-yl-phenyl)-(7-methoxy-[1,2,4]triazino[1,6-a]indol-2-yl)-amine]
–	–	1000 to 10000	< 100	CN(c1ncccc1Nc1ccc2cnc(Nc3ccc(N4CCOCC4)cc3)nn12)S(C)(=O)=O [Example 385, N-Methyl-N-{3-[2-(4-morpholin-4-yl-phenylamino)-pyrrolo[2,1-f][1,2,4]triazin-7-ylamino]-pyridin-2-yl}-methanesulfonamide]
100 to 1000	< 100	–	–	CCN1CCOC(c2ccc(Nc3ncc4ccc(-c5cnn(C)c5)n4n3)cc2)C1 (stereo not shown) [Example 1189, [4-(4-Ethyl-morpholin-2-yl)-phenyl]-[7-(1-methyl-1H-pyrazol-4-yl)-pyrrolo[2,1-f][1,2,4]triazin-2-yl]-amine]
< 100	1000 to 10000	–	–	COc1cc(N2CCC(N3CCCC3)CC2)ccc1Nc1ncc2ccc(-c3ccccc3N(C)S(C)(=O)=O)n2n1 [Example 480, N-(2-{2-[2-Methoxy-4-(4-pyrrolidin-1-yl-piperidin-1-yl)-phenylamino]-pyrrolo[2,1-f][1,2,4]triazin-7-yl}-phenyl)-N-methyl-methanesulfonamide]
< 100	100 to 1000	–	–	COc1cc2c(cc1Nc1ncc3ccc(-c4ccccc4OC)n3n1)CCN(C[C@@H](C)O)CC2 [Example 991, (R)-1-{7-Methoxy-8-[7-(2-methoxy-phenyl)-pyrrolo[2,1-f][1,2,4]triazin-2-ylamino]-1,2,4,5-tetrahydro-benzo[d]azepin-3-yl}-propan-2-ol]
> 10000	100 to 1000	–	–	CC(=O)N1CCc2ccc(Nc3ncc4ccc(-c5cccc(C(=O)NC(C)(C)C)c5)n4n3)cc21 [Example 887, 3-[2-(1-Acetyl-2,3-dihydro-1H-indol-6-ylamino)-pyrrolo[2,1-f][1,2,4]triazin-7-yl]-N-tert-butyl-benzamide]
–	–	< 100	100 to 1000	COc1cc(N2CCC(F)(F)CC2)ccc1Nc1ncc2ccc(-c3ccccc3N(C)S(C)(=O)=O)n2n1 [Example 1469, N-(2-{2-[4-(4,4-Difluoro-piperidin-1-yl)-2-methoxy-phenylamino]-pyrrolo[2,1-f][1,2,4]triazin-7-yl}-phenyl)-N-methyl-methanesulfonamide]
< 100	100 to 1000	–	–	COc1cc2c(cc1Nc1ncc3ccc(-c4ccccc4N(C)S(C)(=O)=O)n3n1)CN(C(C)C)C2 [Example 876, N-{2-[2-(2-Isopropyl-6-methoxy-2,3-dihydro-1H-isoindol-5-ylamino)-pyrrolo[2,1-f][1,2,4]triazin-7-yl]-phenyl}-N-methyl-methanesulfonamide]
–	–	> 10000	1000 to 10000	c1ccc(-c2ccc3cnc(NCCN4CCOCC4)nn23)cc1 [Example 28, (2-Morpholin-4-yl-ethyl)-(7-phenyl-pyrrolo[2,1-f][1,2,4]triazin-2-yl)-amine]
–	–	< 100	< 100	CC(=O)N1CCOc2ccc(Nc3ncc4ccc(-c5cccc(S(=O)(=O)NC(C)(C)C)c5)n4n3)cc21 [Example 1373, 3-[2-(4-Acetyl-3,4-dihydro-2H-benzo[1,4]oxazin-6-ylamino)-pyrrolo[2,1-f][1,2,4]triazin-7-yl]-N-tert-butyl-benzenesulfonamide]
1000 to 10000	< 100	–	–	CCS(=O)(=O)c1cccc(-c2ccc3cnc(Nc4ccc5nc[nH]c5c4)nn23)c1 [Example 1311, (3H-Benzimidazol-5-yl)-[7-(3-ethanesulfonyl-phenyl)-pyrrolo[2,1-f][1,2,4]triazin-2-yl]-amine]
–	–	< 100	< 100	COc1ccc(Cl)cc1-c1ccc2cnc(Nc3ccc(N4CCN(CC(C)(C)O)CC4)cc3)nn12 [Example 222, 1-(4-{4-[7-(5-Chloro-2-methoxy-phenyl)-pyrrolo[2,1-f][1,2,4]triazin-2-ylamino]-phenyl}-piperazin-1-yl)-2-methyl-propan-2-ol]
< 100	1000 to 10000	–	–	COc1cc(CN2CCN(C(=O)OC(C)(C)C)CC2)ccc1Nc1ncc2ccc(-c3ccccc3N(C)S(C)(=O)=O)n2n1 [Example 1222, 4-(4-{7-[2-(Methanesulfonyl-methyl-amino)-phenyl]-pyrrolo[2,1-f][1,2,4]triazin-2-ylamino}-3-methoxy-benzyl)-piperazine-1-carboxylic acid tert-butyl ester]
100 to 1000	< 100	–	–	COc1ccc(-c2ccc3cnc(Nc4ccc(C5CCN(C)CC5)cc4)nn23)cn1 [Example 1180, [7-(6-Methoxy-pyridin-3-yl)-pyrrolo[2,1-f][1,2,4]triazin-2-yl]-[4-(1-methyl-piperidin-4-yl)-phenyl]-amine]
> 10000	1000 to 10000	–	–	c1cc2c(c(-c3ccc4cnc(Nc5cnc6c(N7CCNCC7)cccc6c5)nn34)c1)OCC2 [Example 710, [7-(2,3-Dihydro-benzofuran-7-yl)-pyrrolo[2,1-f][1,2,4]triazin-2-yl]-(8-piperazin-1-yl-quinolin-3-yl)-amine]
–	–	< 100	< 100	CN1CCN(CC2CCN(c3ccc(Nc4ncc5ccc(-c6ccccc6N(C)S(C)(=O)=O)n5n4)cc3)CC2)CC1 [Example 450, N-Methyl-N-[2-(2-{4-[4-(4-methyl-piperazin-1-ylmethyl)-piperidin-1-yl]-phenylamino}-pyrrolo[2,1-f][1,2,4]triazin-7-yl)-phenyl]-methanesulfonamide]
–	–	100 to 1000	< 100	CN1CCN(c2cccc(Nc3ncc4ccc(-c5cccc(Cl)c5)n4n3)c2)CC1 [Example 161, [7-(3-Chloro-phenyl)-pyrrolo[2,1-f][1,2,4]triazin-2-yl]-[3-(4-methyl-piperazin-1-yl)-phenyl]-amine]
–	–	100 to 1000	< 100	[7-(4-Methanesulfonyl-phenyl)-pyrrolo[2,1-f][1,2,4]triazin-2-yl]-(4-morpholin-4-yl-phenyl)-amine [Example 38]
100 to 1000	< 100	–	–	CN(C)C1CCC(c2ccc(Nc3ncc4ccc(-c5cccc(S(=O)(=O)NC(C)(C)C)c5)n4n3)cc2)CC1 (stereo not shown) [Example 567, N-tert-Butyl-3-{2-[4-(4-dimethylamino-cyclohexyl)-phenylamino]-pyrrolo[2,1-f][1,2,4]triazin-7-yl}-benzenesulfonamide]
–	–	100 to 1000	< 100	COc1cc(Nc2ncc3ccc(-c4ccccc4OC)n3n2)cc(OC)c1 [Example 158, (3,5-Dimethoxy-phenyl)-[7-(2-methoxy-phenyl)-pyrrolo[2,1-f][1,2,4]triazin-2-yl]-amine]
1000 to 10000	< 100	–	–	CC(=O)N1CCc2ccc(Nc3ncc4ccc(-c5cnn(C)c5)n4n3)cc21 [Example 966, 1-{6-[7-(1-Methyl-1H-pyrazol-4-yl)-pyrrolo[2,1-f][1,2,4]triazin-2-ylamino]-2,3-dihydro-indol-1-yl}-ethanone]
–	–	100 to 1000	< 100	O=C(NCCN1CCCC1)c1ccc(-c2ccc3cnc(Nc4ccc(N5CCOCC5)cc4)nn23)cc1 [Example 53, 4-[2-(4-Morpholin-4-yl-phenylamino)-pyrrolo[2,1-f][1,2,4]triazin-7-yl]-N-(2-pyrrolidin-1-yl-ethyl)-benzamide]
–	–	100 to 1000	< 100	COc1ccc(-c2ccc3cnc(Nc4cccc(C5(O)CCNCC5)c4)nn23)cn1 [Example 1551, 4-{3-[7-(6-Methoxy-pyridin-3-yl)-pyrrolo[2,1-f][1,2,4]triazin-2-ylamino]-phenyl}-piperidin-4-ol]
< 100	100 to 1000	–	–	COc1ccc(C2CCN(C)CC2)cc1Nc1ncc2ccc(-c3ccccc3N(C)S(C)(=O)=O)n2n1 [Example 774, N-(2-{2-[2-Methoxy-5-(1-methyl-piperidin-4-yl)-phenylamino]-pyrrolo-[2,1-f][1,2,4]triazin-7-yl}-phenyl)-N-methyl-methanesulfonamide]
–	–	> 10000	< 100	CC(=O)N1CCc2ccc(Nc3ncc4ccc(-c5cccc(S(=O)(=O)NC(C)(C)C)c5)n4n3)cc21 [Example 1372, 3-[2-(1-Acetyl-2,3-dihydro-1H-indol-6-ylamino)-pyrrolo[2,1-f][1,2,4]triazin-7-yl]-N-tert-butyl-benzenesulfonamide]
